Assay results taken from publication PMC3256212, “Mechanism and Function of Drosophila capa GPCR: A Desiccation Stress-Responsive Receptor with Functional Homology to Human NeuromedinU Receptor” (PLoS ONE, 2012).
Peptide text beside a SMILES is read from it.

Tests used:
[1] = molecular target: T1, capaR (CG14575) (Drosophila melanogaster, UniProt Q8ITC7); experiment: [Ca2+]i (aequorin) in capaR-transfected S2 cells; type: cell-based; conditions: capaR S2 cells; N = 3 (Fig. 3D); read-out: EC50, [Ca2+]i via capaR
T1 construct: The ORF of capaR was amplified from whole fly cDNA as template; expressed in transfected cells; host or cells: Drosophila S2 cells (pMT/V5-His TOPO, CuSO4 induction)
T1 sequence (Q8ITC7 1-477): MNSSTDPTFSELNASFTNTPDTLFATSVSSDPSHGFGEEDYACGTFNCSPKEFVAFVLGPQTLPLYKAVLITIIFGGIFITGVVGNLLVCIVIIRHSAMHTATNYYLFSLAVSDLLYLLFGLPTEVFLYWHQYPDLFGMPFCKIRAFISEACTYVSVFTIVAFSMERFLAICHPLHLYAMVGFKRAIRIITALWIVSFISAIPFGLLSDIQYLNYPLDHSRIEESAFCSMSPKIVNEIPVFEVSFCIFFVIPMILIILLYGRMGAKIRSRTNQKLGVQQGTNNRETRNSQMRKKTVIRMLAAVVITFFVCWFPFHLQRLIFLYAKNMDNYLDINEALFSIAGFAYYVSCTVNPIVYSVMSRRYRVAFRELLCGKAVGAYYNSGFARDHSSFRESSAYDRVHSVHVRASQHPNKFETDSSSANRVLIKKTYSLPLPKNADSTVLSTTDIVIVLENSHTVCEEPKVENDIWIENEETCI
From the text: The ORF of capaR was amplified from whole fly cDNA as template using the primers 5′-[…]-3′ and 5′-[…]-3′ and cloned into pMT/V5-His TOPO vector (Invitrogen). The eYFP ORF was fused in-frame at the C-terminus of the capaR using KpnI and ApaI sites and the tagged construct was cloned into the pMT/V5-His TOPO vector.
(§1) The capa peptides Drm-capa-1 (GANMGLYAFPRVamide), Drm-capa-2 (ASGLVAFPRVamide), Drm-PK-1 (TGPSASSGLWFGPRLamide), Drm-PK-2 (SVPFKPRLamide) and hugin gamma (hugg, pQLQSNGEPAYRVRTPRL-amide) were synthesised as C-terminally amidated peptides (Biomatik Corporation, Canada). Peptides were dissolved in distilled ACN/H2O to a concentration of 1 mM and then diluted to the required working concentration in Schneider's medium (Invitrogen Inc.). Human neuromedin U-25 was purchased from Sigma. Rabbit polyclonal antibody to porcine neuromedinU-8 was purchased from Progen biotechnik (Heidelberg, Germany). Rabbit capa precursor peptide used was described in [21] Rabbit anti-peptide antibody was raised against the capaR epitope (CQQGTNNRETRNSQM) by Genosphere Biotechnologies (Paris, France) and purified on a HiTrap NHS-activated HP column (Amersham Pharmacia Bio-tech; Buckinghamshire, UK) according to the manufacturer's instructions. Immunohistochemistry was carried out as described previously. Mouse anti-GFP primary antibody (Zymed) and the antiserum to neuromedinU-8 were all diluted 1∶1000 or, in the case of the pre-immune serum, the affinity-purified capaR antibody and the antiserum to the capa precursor peptide, 1∶500. Incubations in the primary antibodies were performed overnight. A FITC-conjugated affinity-purified goat anti-mouse antibody (Jackson Immunologicals) was used in a dilution of 1∶1,000 for visualization of the mouse monoclonal anti-GFP. A Texas red-conjugated affinity-purified goat anti-rabbit antibody (Jackson Immunologicals) was used at a dilution of 1∶1,000 for visualization of the rabbit capaR antiserum.
(§2) Drosophila S2 cells, cultured under standard conditions were transiently transfected with the apoaequorin ORF [21] and a receptor ORF construct, and expression induced using CuSO4. Transfected S2 cells were harvested and incubated with 2.5 µM coelenterazine in the dark at RT for 1–2 h as previously described. 25,000 cells were then placed in 135 µl Schneider's medium supplemented with 10% FCS in a well of a white polystyrene 96-well plate (Berthold Technologies). Bioluminescence recordings were carried out using a Mithras LB940 automated 96-well plate reader (Berthold Technologies) and MikroWin software. 15 µl of each of different peptides were applied to final concentrations as required. At the end of each recording samples were disrupted by the addition of 100 µl lysis solution, and the [Ca^2+] concentrations calculated as previously described. For assays in Ca^2+-free medium, transfected cells were collected and pelleted after incubation with coelenterazine. Cell pellets were re-suspended in Ca^2+-free Schneider's medium (Invitrogen Inc.) without FCS and collected by centrifugation. The washing and pelleting procedure was repeated once more. Experiments were then carried out on 25,000 cells per sample as above. To verify whether the observed calcium signal was linked to phospholipase C (PLC) activation, S2-capaR cells were preincubated with the PLC inhibitor U73122 at concentration of 10^−3 M to 10^−8 M for 10 min. Luminometry experiments were carried out on live, intact tubules expressing a targeted transgene for cytosolic-targeted apoaequorin in either principal or stellate cells as previously described, [22]. For in vivo tubule experiments, flies of the following genotypes were used: c42aeq, capaR-GAL4, UAS-capaR, UAS-capaR RNAi, UAS-NMUR 2 and the resulting progeny from GAL4>UAS crosses.

[2] = molecular target: T2, NMU receptor 2 (NMUR 2) (Homo sapiens, UniProt Q9GZQ4); experiment: [Ca2+]i (aequorin) in NMUR 2-transfected S2 cells; type: cell-based; conditions: NMUR 2- and apoaequorin-co-transfected S2 cells; N = 3 (Fig. 3D); read-out: EC50, [Ca2+]i via NMUR 2
T2 construct: expressed in transfected cells; host or cells: Drosophila S2 cells (pMT/V5-His TOPO)
T2 sequence (Q9GZQ4 whole entry): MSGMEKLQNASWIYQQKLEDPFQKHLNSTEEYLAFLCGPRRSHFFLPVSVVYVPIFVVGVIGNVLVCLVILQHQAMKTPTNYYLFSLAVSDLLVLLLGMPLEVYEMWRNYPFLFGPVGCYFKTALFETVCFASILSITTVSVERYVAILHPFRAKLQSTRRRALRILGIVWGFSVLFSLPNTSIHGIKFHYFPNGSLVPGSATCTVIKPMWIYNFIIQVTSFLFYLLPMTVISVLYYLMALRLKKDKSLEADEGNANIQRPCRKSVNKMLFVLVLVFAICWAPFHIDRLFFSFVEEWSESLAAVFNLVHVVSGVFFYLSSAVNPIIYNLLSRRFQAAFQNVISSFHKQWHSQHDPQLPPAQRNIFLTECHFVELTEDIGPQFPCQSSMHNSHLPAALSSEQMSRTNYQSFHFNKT
Protocol: as §1
as §2, with “Experiments were then carried out on 25,000 cells per sample as above. To verify whether the observed calcium signal was linked to phospholipase C (PLC) activation, S2-capaR cells were preincubated with the PLC inhibitor U73122 at concentration of 10^−3 M to 10^−8 M for 10 min. Luminometry experiments were carried out on live, intact tubules expressing a targeted transgene for cytosolic-targeted apoaequorin in either principal or stellate cells as previously described, [22]. For in vivo tubule experiments, flies of the following genotypes were used: c42aeq, capaR-GAL4, UAS-capaR, UAS-capaR RNAi, UAS-NMUR 2 and the resulting progeny from GAL4>UAS crosses.” left out

Structure (SMILES): CC(C)C[C@H](NC(=O)[C@H](Cc1ccccc1)NC(=O)[C@H](Cc1ccc(O)cc1)NC(=O)CNC(=O)[C@H](CCCNC(=N)N)NC(=O)[C@H](CO)NC(=O)[C@H](CCC(N)=O)NC(=O)[C@H](CO)NC(=O)[C@H](C)NC(=O)[C@H](Cc1ccccc1)NC(=O)[C@@H]1CCCN1C(=O)[C@H](CO)NC(=O)[C@H](CCC(N)=O)NC(=O)[C@H](Cc1ccccc1)NC(=O)[C@H](CCC(=O)O)NC(=O)[C@H](CCC(=O)O)NC(=O)[C@H](CC(=O)O)NC(=O)[C@@H](NC(=O)[C@H](CCCNC(=N)N)NC(=O)[C@@H](N)Cc1ccccc1)C(C)C)C(=O)N[C@@H](Cc1ccccc1)C(=O)N[C@@H](CCCNC(=N)N)C(=O)N1CCC[C@H]1C(=O)N[C@@H](CCCNC(=N)N)C(=O)N[C@@H](CC(N)=O)C(N)=O [NMU-25, reference compound] (H-FRVDEEFQSPFASQSRGYFLFRPRN-NH2)
- EC50 [1]: 21.8 nM
- EC50 [2]: 0.91 nM
